Assay results from patent publication US20130203830A1, “Compounds for Prevention of Cell Injury” (SULFATEQ B.V., priority 2010, published 2013).
“Also recorded” adds a separate entry of the source.

Assays:
DDT-1 cells [1] = test: Indoleamine content of DDT-1 cells (Ehrlich reagent); format: cell-based, hamster; conditions: 4 days of pretreatment, n=8
Method: Ehrlich's reagent was used to quantify the cellular amount of indoles. Qualitative analysis of cellular indoles in cell culture medium at 37° C. and 3° C. was conducted after extraction according to Happold and Hoyle. Five ml of medium was shaken vigorously with 2 ml of xylene. Next, 1 ml of Ehrlich's reagent is applied to the surface of the mixture. Redistribution of xylene through the Ehrlich's reagent induces formation of the rosindole body, a red ring appearing at the lower surface of the xylene layer indicating the presence of indoleamides. The change in indole concentration in DDT-1 cells was measured after washing the cells with PBS, centrifugation (1000 rpm, 5 min) and removal of supernatant. Ehrlich reagent (200 μl) was added to each tube. After 3 min of vortexing, tubes were left for 3 h at 60° C. After centrifugation (1000 rpm, 5 min), color intensity was spectrophotometrically measured at 625 nm. Calibration experiments were carried out using 5-HT (0.025-0.5 mM), which rendered a linear regression with a correlation coefficient (R2) of 0.9996 (data not shown). To verify the accuracy of the Ehrlich reagent experiments automated mass spectrometric analysis was performed on all the samples according to the method set up by Ido P. Kema. […]

DDT-1 cells [2] = test: Survival of DDT-1 cells after hypothermia (MTS assay); format: cell-based, hamster; conditions: 3° C.; for resistance / survival of DDT-1 cells in hypothermia: 24 h, ketanserine 400 ng/ml and 10 μg/ml, fluoxetine 0.005 μM 15 min before, CBS siRNA
Method: Cell lines used included NRK (normal rat kidney cells), DDT-1 (hamster ductus deferens muscle cells) and A7R5 (rat vascular smooth muscle cells) cultured in DMEM (Gibco, 41966, UK) and SMAC (rat smooth muscle aortic cells) and THMC (transformed human mesangial cell) cultured in DMEM/F12 (Gibco, E12-719F). All media were supplied with 10% (vol/vol) fetal calf serum and 1% penicillin-streptomycin and cultured at 37° C. in 5% CO2 in 25 cm^2 or 75 cm^2 flasks. For hypothermia experiments, cells were plated in 6 or 96 wells plates and grown to confluence. […] Cell survival was measured by counting of trypan blue stained cells or MTS assay, which measures the number of viable cells. For the latter, 20 μl of MTS solution was added to each well and cells were subsequently placed in the incubator at 37° C. in 5% CO2 for 3 hr before assessing the cell survival by measuring absorption using a microplate reader at 490 nm.
(§1) MTS assay was performed to investigate cell survival after blocking serotonin transporter and hypothermic treatment.
Parachlorophenyl-alanine (PCPA; Sigma, C6506-5G) was dissolved in warmed, acidified (pH 6.8) DDT-1 medium and vortexed for 5 min to a final concentration of 1.25 μM. Other concentrations were made from this stock solution. Control experiments were performed with a similar solution without PCPA. Anhydrous creatine (Sigma C4255-25G, USA) was dissolved in cell medium and added to wells to exclude the effect of this component. The treatment continued for 4 days until the concentration of indoleamines inside the cells reached half the baseline value. The cells were placed at 3° C., and MTS assay was performed after 24 h.

SMAC cells [3] = test: H2S production in SMAC cells at 3° C. (methylene blue, supernatant); format: cell-based, rat; conditions: SMAC cells incubated at 3° C. for 24 hour
Method: (§2) Methylene blue method for H2S detection was applied to quantitatively measure the H2S production. Cells were washed with PBS, scraped and centrifuged for 60 sec at 1000 rpm. After removal of the supernatant, zinc acetate 1% in water (200 μl) was added to the cell sediments and the cells were disrupted by small glass beads and vortexed for 20 seconds. Diamine-ferric solution was prepared by mixing 100 μl of a 400 mg N,N-dimethyl-p-phenylenediamine dihydrochloride dissolved in 10 ml 6M HCl and 100 μl of 600 mg ferric chloride in 10 ml 6M HCl. Two hundred μl of this mixture was added to the cell suspension and after an incubation time of 30 min at 37° C. and centrifugation, the amount of methylene blue formed in the supernatant was measured at a wavelength of 670 nm. To measure H2S content of supernatant, the same procedure was repeated for the cell free medium of cells incubated at both 37° C. and 3° C. Blanks were made following the same procedure without cells or using fresh medium. The concentration of H2S was calculated by extrapolation using a standard curve obtained from different concentrations of Methylene blue and spectrophotometric measurement at a wavelength of 670 nm. The amount of H2S present was calculated on the basis that every mole of methylene blue formed in this reaction contains 32 g (1 mole) of captured sulfur.
Methylene blue method for H2S detection was applied to quantitatively examine the H2S present in cell supernatant at 0 and 24 hr after hypothermic treatment at 3° C.

SMAC cells [4] = test: Survival of SMAC cells after hypothermia (MTS assay / cell counting); format: cell-based, rat; conditions: for effect on the protective effect of serotonin on hypothermic SMAC cells: 24 h, 3° C., ketanserine 400 ng/ml and 10 μg/ml, fluoxetine 0.005 μM, CBS siRNA
Method: Cell lines used included NRK (normal rat kidney cells), DDT-1 (hamster ductus deferens muscle cells) and A7R5 (rat vascular smooth muscle cells) cultured in DMEM (Gibco, 41966, UK) and SMAC (rat smooth muscle aortic cells) and THMC (transformed human mesangial cell) cultured in DMEM/F12 (Gibco, E12-719F). All media were supplied with 10% (vol/vol) fetal calf serum and 1% penicillin-streptomycin and cultured at 37° C. in 5% CO2 in 25 cm^2 or 75 cm^2 flasks. For hypothermia experiments, cells were plated in 6 or 96 wells plates and grown to confluence. Thereupon, cells were placed at 3° C. for up to 24 hours. Cell survival was measured by counting of trypan blue stained cells or MTS assay, which measures the number of viable cells. For the latter, 20 μl of MTS solution was added to each well and cells were subsequently placed in the incubator at 37° C. in 5% CO2 for 3 hr before assessing the cell survival by measuring absorption using a microplate reader at 490 nm.
as §1

DDT-1 cells [5] = test: H2S content of DDT-1 cells (methylene blue method); format: cell-based, hamster; conditions: hypothermia, at 24 h
Method: as §2

CBS [6] = biological target: T1, CBS (Homo sapiens, UniProt P35520); conditions: binding to CBS; cited from earlier work
T1 sequence (P35520 1-551): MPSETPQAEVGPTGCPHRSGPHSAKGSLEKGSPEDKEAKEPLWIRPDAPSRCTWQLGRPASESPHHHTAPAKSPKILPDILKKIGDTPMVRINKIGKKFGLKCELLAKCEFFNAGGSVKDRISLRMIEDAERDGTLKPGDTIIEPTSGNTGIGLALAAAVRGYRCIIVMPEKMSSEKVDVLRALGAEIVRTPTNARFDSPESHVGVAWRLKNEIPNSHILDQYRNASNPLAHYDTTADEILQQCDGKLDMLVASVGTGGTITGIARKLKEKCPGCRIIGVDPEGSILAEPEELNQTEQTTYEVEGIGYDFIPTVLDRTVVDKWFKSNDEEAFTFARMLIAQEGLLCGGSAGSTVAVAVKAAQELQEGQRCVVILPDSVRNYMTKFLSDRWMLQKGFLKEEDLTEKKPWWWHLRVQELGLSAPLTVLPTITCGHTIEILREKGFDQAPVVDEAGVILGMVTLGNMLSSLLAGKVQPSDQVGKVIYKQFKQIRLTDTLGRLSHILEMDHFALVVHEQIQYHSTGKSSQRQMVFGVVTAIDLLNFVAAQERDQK

CBS [7] = test: CBS expression in normothermic and hypothermic rat tissue (immunostaining); conditions: liver, pancreas, lung, kidney, heart; 3° C., 24 hr
Text: Two rats (rattus norvegicus) were sacrificed and blood was taken out. The tissues were flushed by either PBS as control or PBS plus dopamine. Liver, pancreas, lung, kidney and heart were harvested. […] Tissues were fixed after being taken out of cold room. The tissues were later embedded in Paraffin, cut into 5 μm sections and stained with CBS antibody.

CBS [8] = test: CBS expression in liver of cooled and rewarmed rats; format: in vivo, rat; conditions: rats cooled to 15° C. for 3 hr and rewarmed; compared to controls
Method: (§3) Three groups of male Wistar rats (350-400 gr) were investigated: cooled rats either anesthetized with propofol or ketamine (n=6 each); a non-cooled control group briefly anesthetized with isofluran was sacrificed at 37° C. (n=3). After anesthesia with isofluran, the trachea was intubated with a […] cuffed tube and mechanical ventilation was started with air. A 5F central venous catheter was introduced in the internal jugular vein for blood sampling, hydration and administration of the anesthetic. A catheter was inserted in the common carotid artery for continuous monitoring of systemic arterial pressure and for blood gas analysis. Cardiovascular and oxygen saturation monitoring was performed during the entire procedure. After preparation, isoflurane was stopped and anesthesia was maintained with either propofol-Lipro (20 mg/m; Braun, Melsungen, Duitsland) at 2 ml/h or ketamine 0.6 ml/hr for 1 hr. Cooling of the animals was accomplished by an external cooling blanket and ice packs. […] Rats were kept at this temperature for 3 hr, followed by rewarming to 37° C. in about 1 hr using a heating blanket and warm air. The rats were then kept at 37° C. for another hr, followed by sacrification by exsanguination. […]
CBS (cystathionine betasynthase) expression was also measured as the one of the main enzymes producing H2S in the liver.

[9] = Serum H2S concentration in rats (methylene blue method); format: in vivo, rat; conditions: throughout cooling and rewarming procedure, compared to control
male Wistar rats = test: In vivo protection from hypothermic liver damage (FABP1 expression); design: species or system rat; conditions: rats cooled to 15° C. for 3 hr and rewarmed to 37° C.; compared to non-cooled control
Method: as §3, with “exsanguination. Blood sampling was performed at the end of the preparation period and every hr after the body temperature reached 15° C.” for “exsanguination.”

N[C@@H](Cc1ccc(Cl)cc1)C(=O)O (racemic) [PCPA, parachlorophenylalanine]
decrease in indoleamine content of the cells (DDT-1 cells [1]): 50±10%
DDT-1 survival following hypothermia after PCPA pretreatment (DDT-1 cells [2]; 48 hr): concentration-dependently decreased; also recorded: blocked

NCC(CC(=O)O)c1ccc(Cl)cc1 (racemic) [baclofen, (RS)-4-amino-3-(4-chlorophenyl)butanoic acid]
H2S production (SMAC cells [3]): increased H2S production

CN(CC(=O)O)C(=N)N.O=S(=O)(O)O [Creatine sulfate]
protection against hypothermic cell death / reduction in number of cells (SMAC cells [4]; SMAC cells, 24 h at 3° C., substance added 15 min before hypothermia): did not show any protective effects

CNCCC(Oc1ccc(C(F)(F)F)cc1)c1ccccc1 (stereo not drawn) [Fluoxetine]
H2S concentration inside DDT-1 cells (DDT-1 cells [5]): lower concentration of H2S
resistance / survival of DDT-1 cells in hypothermia (DDT-1 cells [2]): death of more than half of these cells
effect on the protective effect of serotonin on hypothermic SMAC cells (SMAC cells [4]): complete annihilation of the protective effect of serotonin

O=C(c1ccc(F)cc1)C1CCN(CCn2c(=O)[nH]c3ccccc3c2=O)CC1 [Ketanserine]
resistance / survival of DDT-1 cells in hypothermia (DDT-1 cells [2]): did not affect the resistance
effect on the protective effect of serotonin on hypothermic SMAC cells (SMAC cells [4]): nor did it affect the protective effect of serotonin

Cc1ncc(COP(=O)(O)O)c(C=O)c1O [PLP, Pyridoxal 5-Phosphate]
free energy of binding reported for PLP (CBS [6]): -4.81 kcal/mol

NCCc1ccc(O)c(O)c1 [dopamine, 2-(3,4-dihydroxyfenyl)ethylamine]
CBS expression in hypothermic rat tissue (CBS [7]): increased expression; also recorded: upregulation of CBS
H2S production (SMAC cells [3]): increased H2S production

NCCc1c[nH]cn1 [histamine, 4-(2′-aminoethyl)-imidazol]
H2S production (SMAC cells [3]): increased H2S production

CNC1(c2ccccc2Cl)CCCCC1=O (stereo not drawn) [ketamine, reference compound]
CBS expression in liver (CBS [8]): significantly lowered
Serum H2S concentration [9]: decreased
liver damage, FABP1 expression in liver (male Wistar rats): decreased expression of FABP1

COc1ccc2[nH]cc(CCNC(C)=O)c2c1 [melatonin, N-[2-(5-methoxy-1H-indol-3-yl)ethyl]acetamide]
H2S production (SMAC cells [3]): increased H2S production

CC(C)c1cccc(C(C)C)c1O [propofol, 2,6-diisopropylfenol]
CBS expression in liver (CBS [8]): induces expression of cystathionine beta synthase; also recorded: increased the expression of CBS
H2S production (SMAC cells [3]): increased H2S production
Serum H2S concentration [9]: increased
liver damage, FABP1 expression in liver (male Wistar rats): protects liver tissue against in vivo hypothermia
